Here are results for 15 molecules from ChEMBL document CHEMBL2203245 (Bioorg Med Chem Lett, 2012).

Assay [1] has as its target T1, Kappa-type opioid receptor (Homo sapiens, UniProt P41145). The assay can be described thus: Antagonist activity at human kappa opioid receptor expressed in CHO cells assessed as inhibition of U50,488-induced [35S]GTPgammaS binding after 60 mins by scintillation counting. The format is functional, cell-based. Background: GTPγS is a poorly hydrolysed GTP analogue; its binding reports G protein activation.

Assay [2] has as its target T1, Kappa-type opioid receptor. The assay can be described thus: Agonist activity at human kappa opioid receptor expressed in CHO cells assessed as [35S]GTPgammaS binding after 60 mins by scintillation counting. Type of assay: functional, cell-based.
Assay [3] addresses T2, Delta-type opioid receptor (Homo sapiens, UniProt P41143). The assay can be described thus: Antagonist activity at human delta opioid receptor expressed in CHO cells assessed as inhibition of SNC80-induced [35S]GTPgammaS binding after 60 mins by scintillation counting. Type of assay: functional, cell-based.
The target of assay [4] is T2, Delta-type opioid receptor. Description: Agonist activity at human delta opioid receptor expressed in CHO cells assessed as [35S]GTPgammaS binding after 60 mins by scintillation counting. Type of assay: functional, cell-based.
For assay [5], the species on record is Homo sapiens. Description: Selectivity ratio of Ki for human kappa opioid receptor to Ki for human mu opioid receptor.
The species entered for assay [6] is Homo sapiens. The assay can be described thus: Selectivity ratio of Ki for human delta opioid receptor to Ki for human mu opioid receptor.
The target in assay [7] is T1, Kappa-type opioid receptor. Description: Displacement of [3H]U69,593 from human kappa opioid receptor expressed in CHO cells after 60 mins by scintillation counting. The format is cell-based.
Assay [8] deals with T2, Delta-type opioid receptor. The assay can be described thus: Displacement of [3H]Naltrindole from human delta opioid receptor expressed in CHO cells after 3 hrs by scintillation counting. The format is cell-based.
The target of assay [9] is T3, Mu-type opioid receptor (Homo sapiens, UniProt P35372). The assay can be described thus: Displacement of [3H]DAMGO from human mu opioid receptor expressed in CHO cells after 60 mins by scintillation counting. Type of assay: cell-based. (In general: Displacement assays read how much labelled ligand stays bound in the presence of the test substance.)
T3 sequence (P35372 whole entry): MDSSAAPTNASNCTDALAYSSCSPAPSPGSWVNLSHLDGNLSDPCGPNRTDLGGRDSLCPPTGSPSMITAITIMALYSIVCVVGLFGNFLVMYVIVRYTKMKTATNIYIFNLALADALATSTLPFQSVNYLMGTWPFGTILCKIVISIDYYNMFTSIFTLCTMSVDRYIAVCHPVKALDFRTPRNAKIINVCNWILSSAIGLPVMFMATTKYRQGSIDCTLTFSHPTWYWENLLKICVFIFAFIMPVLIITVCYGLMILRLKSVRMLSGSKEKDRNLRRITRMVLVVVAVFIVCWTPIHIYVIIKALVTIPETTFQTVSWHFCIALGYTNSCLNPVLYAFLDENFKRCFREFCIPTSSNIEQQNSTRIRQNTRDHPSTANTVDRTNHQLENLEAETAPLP
Assay [10] concerns the target T2, Delta-type opioid receptor. Description: Partial agonist activity at human delta opioid receptor expressed in CHO cells assessed as [35S]GTPgammaS binding after 60 mins by scintillation counting relative to untreated control. The format is functional, cell-based.
The target of assay [11] is T2, Delta-type opioid receptor. The assay can be described thus: Partial agonist activity at human delta opioid receptor expressed in CHO cells assessed as [35S]GTPgammaS binding after 60 mins by scintillation counting. The format is functional, cell-based.
For assay [12], the target named is T3, Mu-type opioid receptor. The assay can be described thus: Partial agonist activity at human mu opioid receptor expressed in CHO cells assessed as [35S]GTPgammaS binding after 60 mins by scintillation counting relative to untreated-control. Type of assay: functional, cell-based.
In assay [13] the target is T3, Mu-type opioid receptor. Description: Partial agonist activity at human mu opioid receptor expressed in CHO cells assessed as [35S]GTPgammaS binding after 60 mins by scintillation counting. Type of assay: functional, cell-based.
The target of assay [14] is T3, Mu-type opioid receptor. The assay can be described thus: Antagonist activity at human mu opioid receptor expressed in CHO cells assessed as inhibition of DAMGO-induced [35S]GTPgammaS binding after 60 mins by scintillation counting relative to untreated-control. The format is functional, cell-based.
The target in assay [15] is T3, Mu-type opioid receptor. The assay can be described thus: Antagonist activity at human mu opioid receptor expressed in CHO cells assessed as inhibition of DAMGO-induced [35S]GTPgammaS binding after 60 mins by scintillation counting. Type of assay: functional, cell-based.
Assay [16] deals with T3, Mu-type opioid receptor. Description: Agonist activity at human mu opioid receptor expressed in CHO cells assessed as [35S]GTPgammaS binding after 60 mins by scintillation counting relative to untreated-control. Type of assay: functional, cell-based.

T1 sequence (P41145 whole entry): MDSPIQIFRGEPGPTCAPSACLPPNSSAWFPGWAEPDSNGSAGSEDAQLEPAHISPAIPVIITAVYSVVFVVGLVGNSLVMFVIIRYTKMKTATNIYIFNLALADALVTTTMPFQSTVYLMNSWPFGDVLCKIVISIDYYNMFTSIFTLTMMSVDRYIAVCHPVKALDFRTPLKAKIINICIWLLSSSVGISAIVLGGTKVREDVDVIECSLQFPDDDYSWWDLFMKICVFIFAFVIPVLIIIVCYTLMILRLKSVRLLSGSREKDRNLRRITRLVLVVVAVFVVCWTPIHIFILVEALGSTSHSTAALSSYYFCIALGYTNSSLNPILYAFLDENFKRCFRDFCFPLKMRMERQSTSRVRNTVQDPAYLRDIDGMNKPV
T2 sequence (P41143 whole entry): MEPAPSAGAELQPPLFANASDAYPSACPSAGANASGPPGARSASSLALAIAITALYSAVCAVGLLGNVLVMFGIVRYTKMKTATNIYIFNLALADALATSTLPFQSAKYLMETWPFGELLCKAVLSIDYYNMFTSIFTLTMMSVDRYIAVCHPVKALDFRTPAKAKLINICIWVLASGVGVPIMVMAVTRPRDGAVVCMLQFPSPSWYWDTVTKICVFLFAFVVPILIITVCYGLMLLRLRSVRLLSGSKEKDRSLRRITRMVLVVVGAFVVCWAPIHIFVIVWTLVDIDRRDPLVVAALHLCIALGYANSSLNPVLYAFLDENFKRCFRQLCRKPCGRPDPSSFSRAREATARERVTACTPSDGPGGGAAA

Consider `CC1C2Cc3ccc(C(=O)NCCc4ccc(-c5ccc6c(c5)OCO6)cc4)cc3C1(C)CCN2CC1CC1` (racemic), for which the IC50 result in [1] and in [3] (cho) was “Not Active” each time. The EC50 (commonly the midpoint of the concentration-response curve) in assay [2] was found to be 0.34 nM; in [4], 0.8 nM.
Regarding `COc1ccccc1-c1ccc(CCNC(=O)c2ccc3c(c2)C2(C)CCN(CC4CC4)C(C3)C2C)cc1` (racemic), the results for the Ratio Ki in the assay filed under Homo sapiens [5] and in the assay filed under Homo sapiens [6] were 3 and 7, respectively. Also, the Ki (as a rule, the dissociation constant of the complex between target and ligand, obtained from inhibition or displacement) in assay [7] turned out to be 0.38 nM; in assay [8], 0.84 nM; at Mu-type opioid receptor [9] it was 0.12 nM.
As to `CC1C2Cc3ccc(C(=O)NCCc4ccc(-c5cccc(O)c5)cc4)cc3C1(C)CCN2CC1CC1` (racemic), the figures for the Ratio Ki in the assay listed under Homo sapiens [5] and in the assay filed under Homo sapiens [6] were 62 and 57, respectively. In addition, the Ki in assay [7] was found to be 1.3 nM; in assay [8], 1.2 nM; at Mu-type opioid receptor [9], 0.021 nM.
For `CC1C2Cc3ccc(C(=O)NCCc4ccc5ccccc5c4)cc3C1(C)CCN2CC1CC1` (racemic), the figures for the Ratio Ki in the assay filed under Homo sapiens [5] and in the assay listed under Homo sapiens [6] were 1 and 5, respectively. The Ki worked out at 0.2 nM in assay [7], 0.9 nM in assay [8] and 0.18 nM on Mu-type opioid receptor [9].
As to `COc1ccc(-c2ccc(CCNC(=O)c3ccc4c(c3)C3(C)CCN(CC5CC5)C(C4)C3C)cc2)cc1OC` (racemic), the IC50 (as a rule, the concentration needed to halve the response being measured) is “Not Active” in [1], 70 nM in [3] (read-out: IC50) and 29 nM at Mu-type opioid receptor [15]. The results for the EC50 (in [2]; in assay [11]; on Mu-type opioid receptor [13]) were 3 nM, 6.2 nM and 1.6 nM, respectively. The Emax (as a rule, the size of the effect at its maximum, as opposed to the concentration needed) in [10] worked out at 73%; at Mu-type opioid receptor [12] it was 32%. Moreover, the Imax on Mu-type opioid receptor [14] came out at 70%. For the same molecule, the values for the Ratio Ki in the assay filed under Homo sapiens [5] and in the assay filed under Homo sapiens [6] were 183 and 211, respectively. Besides, the Ki in assay [7] was 1.3 nM; in assay [8], 1.5 nM; at Mu-type opioid receptor [9], 0.0071 nM.
Consider `CC1C2Cc3ccc(C(=O)NCCc4ccc(-c5ccc(OC(F)F)cc5)cc4)cc3C1(C)CCN2CC1CC1` (racemic), for which the results for the Ratio Ki in the assay listed under Homo sapiens [5] and in the assay listed under Homo sapiens [6] were 9 and 3, respectively. For the same molecule, the values for the Ki (in [7]; in [8]; at Mu-type opioid receptor [9]) were 2.7 nM, 0.8 nM and 0.3 nM, respectively.
`CC1C2Cc3ccc(C(=O)NCCc4ccc(-c5ccc(OC(F)(F)F)cc5)cc4)cc3C1(C)CCN2CC1CC1` (racemic): the Ratio Ki in the assay listed under Homo sapiens [5] was 3; in the assay listed under Homo sapiens [6] it was 4. In addition, the Ki in assay [7] stood at 5.2 nM; in [8] it was 6.6 nM; at Mu-type opioid receptor [9] it was 1.8 nM.
Regarding `CC(C)Oc1ccc(-c2ccc(CCNC(=O)c3ccc4c(c3)C3(C)CCN(CC5CC5)C(C4)C3C)cc2)cc1` (racemic), the IC50 result in assay [1] is “Not Active”; in assay [3] (cho), “Not Active”; at Mu-type opioid receptor [15] it was 13 nM. The values for the EC50 (in assay [4]; at Mu-type opioid receptor [13]) were 18 nM and 2.3 nM, respectively. Besides, the Emax at Mu-type opioid receptor [12] came to 35%. Besides, the Imax at Mu-type opioid receptor [14] is 72%.
Consider `COc1ccc(-c2ccc(CCNC(=O)c3ccc4c(c3)C3(C)CCN(CC5CC5)C(C4)C3C)cc2)cc1` (racemic), for which the results for the Ratio Ki in the assay listed under Homo sapiens [5] and in the assay listed under Homo sapiens [6] were 18 and 2, respectively. Moreover, the inhibition constant (Ki) came to 1.5 nM in assay [7], 0.18 nM in [8] and 0.084 nM on Mu-type opioid receptor [9].
As to `COc1ccc2cc(CCNC(=O)c3ccc4c(c3)C3(C)CCN(CC5CC5)C(C4)C3C)ccc2c1` (racemic), the IC50 result was “Not Active” in assay [1], “Not Active” in assay [3] (cho) and 45 nM on Mu-type opioid receptor [15]. Moreover, the figures for the EC50 in assay [2] and in assay [4] were 1.3 nM and 7.5 nM, respectively. In addition, the Imax at Mu-type opioid receptor [14] worked out at 76%. Besides, the maximal effect (Emax) on Mu-type opioid receptor [16] was found to be 6.6%. In addition, the Ki in assay [7] is 0.45 nM; in assay [8], 2.2 nM; on Mu-type opioid receptor [9] it was 0.064 nM.
As to `C[C@H]1[C@H]2Cc3ccc(C(=O)NCCc4ccc(-c5ccc(O)cc5)cc4)cc3[C@]1(C)CCN2CC1CC1`, the concentration for half-maximal inhibition (IC50) entry in [1] and in assay [3] (cho) was “Not Active” throughout. Moreover, the EC50 in [2] worked out at 0.26 nM; in assay [4], 0.31 nM. Moreover, at Mu-type opioid receptor [12], the Emax stood at 31%. Further, the Imax at Mu-type opioid receptor [14] is 62%. For the same molecule, the Ki in assay [7] amounted to 0.36 nM; in assay [8], 0.78 nM.
For `COc1ccc(-c2ccc(CCNC(=O)c3ccc4c(c3)C3(C)CCN(CC5CC5)C(C4)C3C)cc2)cc1C` (racemic), the IC50 result in [1] and in assay [3] (cho) was “Not Active” in each case. Besides, the EC50 in assay [4] turned out to be 2.8 nM. Further, the Emax on Mu-type opioid receptor [12] is 21%. Moreover, the Imax on Mu-type opioid receptor [14] worked out at 81%.
Turning to `CC1C2Cc3ccc(O)cc3C1(C)CCN2CC1CC1` (racemic), the Ki turned out to be 0.07 nM in assay [7] and 2 nM in assay [8].
Turning to `COc1cccc(-c2ccc(CCNC(=O)c3ccc4c(c3)C3(C)CCN(CC5CC5)C(C4)C3C)cc2)c1` (racemic), the IC50 result in [1] and in assay [3] (cho) was “Not Active” each time. Further, the EC50 in assay [2] is 3.1 nM; in [4], 1.2 nM. Further, the Ki in assay [7] amounted to 0.22 nM; in assay [8], 1.3 nM.
On to `CC1C2Cc3ccc(C(=O)NCCc4ccc(-c5ccccc5O)cc4)cc3C1(C)CCN2CC1CC1` (racemic), for which the values for the IC50 result (in assay [1]; in assay [3] (cho); on Mu-type opioid receptor [15]) were “Not Active”, “Not Active” and 64 nM, respectively. Moreover, the EC50 in assay [2] came to 0.086 nM; in assay [4], 0.16 nM; at Mu-type opioid receptor [13], 1.5 nM. In addition, the Emax at Mu-type opioid receptor [12] is 48%. In addition, the Imax on Mu-type opioid receptor [14] was 67%. For the same molecule, the Ki in assay [7] was 2.1 nM; in assay [8] it was 0.24 nM; at Mu-type opioid receptor [9], 0.0056 nM.
